In the first assay the target is human Cav2.2 (Homo sapiens, UniProt Q00975). Briefly: Assessment of calcium channel activity using FLIPR (Ca2+ influx in IMR32 cells). It counts as cell-based.
Chain of human Cav2.2 (Q00975 whole entry): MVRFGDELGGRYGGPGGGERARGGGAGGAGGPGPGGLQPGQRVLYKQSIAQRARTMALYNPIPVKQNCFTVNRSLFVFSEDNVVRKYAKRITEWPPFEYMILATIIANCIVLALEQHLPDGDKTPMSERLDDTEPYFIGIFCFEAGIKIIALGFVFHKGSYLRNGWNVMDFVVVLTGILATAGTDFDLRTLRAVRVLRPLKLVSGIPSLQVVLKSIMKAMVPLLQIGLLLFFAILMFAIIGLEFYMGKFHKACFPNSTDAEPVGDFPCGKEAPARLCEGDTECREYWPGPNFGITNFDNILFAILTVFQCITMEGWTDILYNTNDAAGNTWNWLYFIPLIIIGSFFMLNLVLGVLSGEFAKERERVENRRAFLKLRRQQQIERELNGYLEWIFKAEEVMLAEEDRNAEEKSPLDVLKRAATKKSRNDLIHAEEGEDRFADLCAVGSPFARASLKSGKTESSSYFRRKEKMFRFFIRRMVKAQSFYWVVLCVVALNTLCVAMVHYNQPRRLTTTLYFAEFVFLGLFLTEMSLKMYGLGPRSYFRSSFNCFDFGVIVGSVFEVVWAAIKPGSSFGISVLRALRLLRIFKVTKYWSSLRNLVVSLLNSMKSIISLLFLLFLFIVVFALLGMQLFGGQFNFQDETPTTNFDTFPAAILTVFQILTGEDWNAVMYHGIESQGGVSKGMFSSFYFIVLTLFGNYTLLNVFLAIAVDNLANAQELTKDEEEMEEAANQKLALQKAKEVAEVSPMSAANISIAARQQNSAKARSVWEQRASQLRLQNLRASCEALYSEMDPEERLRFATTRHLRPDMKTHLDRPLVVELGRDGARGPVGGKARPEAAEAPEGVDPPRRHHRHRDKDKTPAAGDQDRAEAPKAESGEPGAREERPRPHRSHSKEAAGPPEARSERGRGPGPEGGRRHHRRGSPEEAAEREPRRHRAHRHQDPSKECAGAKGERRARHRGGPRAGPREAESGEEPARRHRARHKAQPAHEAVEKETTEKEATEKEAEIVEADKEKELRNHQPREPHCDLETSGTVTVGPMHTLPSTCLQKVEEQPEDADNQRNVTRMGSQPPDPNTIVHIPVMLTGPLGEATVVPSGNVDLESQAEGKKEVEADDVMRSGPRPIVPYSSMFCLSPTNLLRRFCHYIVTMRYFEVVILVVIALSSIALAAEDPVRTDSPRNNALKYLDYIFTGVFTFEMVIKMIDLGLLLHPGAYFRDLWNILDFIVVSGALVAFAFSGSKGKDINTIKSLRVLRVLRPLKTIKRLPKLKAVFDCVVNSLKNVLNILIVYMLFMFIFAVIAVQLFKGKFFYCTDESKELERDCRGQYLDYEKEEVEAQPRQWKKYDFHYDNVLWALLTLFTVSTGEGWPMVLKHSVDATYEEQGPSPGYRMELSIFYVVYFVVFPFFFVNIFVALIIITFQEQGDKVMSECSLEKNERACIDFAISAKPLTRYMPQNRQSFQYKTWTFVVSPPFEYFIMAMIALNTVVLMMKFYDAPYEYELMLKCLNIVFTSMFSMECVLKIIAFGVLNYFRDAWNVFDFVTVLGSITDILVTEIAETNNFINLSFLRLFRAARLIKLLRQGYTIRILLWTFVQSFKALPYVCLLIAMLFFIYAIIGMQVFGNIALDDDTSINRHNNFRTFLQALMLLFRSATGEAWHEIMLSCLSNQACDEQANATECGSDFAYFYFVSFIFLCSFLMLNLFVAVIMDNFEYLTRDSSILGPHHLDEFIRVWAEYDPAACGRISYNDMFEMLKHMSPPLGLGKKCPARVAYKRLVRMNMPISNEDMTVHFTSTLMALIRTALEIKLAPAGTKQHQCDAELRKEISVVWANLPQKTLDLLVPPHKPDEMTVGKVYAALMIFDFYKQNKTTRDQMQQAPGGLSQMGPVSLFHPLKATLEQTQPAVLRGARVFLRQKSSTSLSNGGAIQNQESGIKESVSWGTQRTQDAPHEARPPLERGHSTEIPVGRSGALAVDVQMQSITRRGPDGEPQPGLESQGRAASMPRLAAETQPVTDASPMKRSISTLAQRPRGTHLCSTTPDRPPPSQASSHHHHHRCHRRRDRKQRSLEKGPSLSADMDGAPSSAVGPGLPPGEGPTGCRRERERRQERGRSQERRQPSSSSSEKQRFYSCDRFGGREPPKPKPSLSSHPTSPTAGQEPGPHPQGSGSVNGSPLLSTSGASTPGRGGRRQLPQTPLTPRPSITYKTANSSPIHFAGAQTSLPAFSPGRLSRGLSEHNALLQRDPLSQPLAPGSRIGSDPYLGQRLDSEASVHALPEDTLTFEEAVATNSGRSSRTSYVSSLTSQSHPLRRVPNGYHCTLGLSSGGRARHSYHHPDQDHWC
Chain of human Cav2.2 (P54289 25-956 partner limits assumed): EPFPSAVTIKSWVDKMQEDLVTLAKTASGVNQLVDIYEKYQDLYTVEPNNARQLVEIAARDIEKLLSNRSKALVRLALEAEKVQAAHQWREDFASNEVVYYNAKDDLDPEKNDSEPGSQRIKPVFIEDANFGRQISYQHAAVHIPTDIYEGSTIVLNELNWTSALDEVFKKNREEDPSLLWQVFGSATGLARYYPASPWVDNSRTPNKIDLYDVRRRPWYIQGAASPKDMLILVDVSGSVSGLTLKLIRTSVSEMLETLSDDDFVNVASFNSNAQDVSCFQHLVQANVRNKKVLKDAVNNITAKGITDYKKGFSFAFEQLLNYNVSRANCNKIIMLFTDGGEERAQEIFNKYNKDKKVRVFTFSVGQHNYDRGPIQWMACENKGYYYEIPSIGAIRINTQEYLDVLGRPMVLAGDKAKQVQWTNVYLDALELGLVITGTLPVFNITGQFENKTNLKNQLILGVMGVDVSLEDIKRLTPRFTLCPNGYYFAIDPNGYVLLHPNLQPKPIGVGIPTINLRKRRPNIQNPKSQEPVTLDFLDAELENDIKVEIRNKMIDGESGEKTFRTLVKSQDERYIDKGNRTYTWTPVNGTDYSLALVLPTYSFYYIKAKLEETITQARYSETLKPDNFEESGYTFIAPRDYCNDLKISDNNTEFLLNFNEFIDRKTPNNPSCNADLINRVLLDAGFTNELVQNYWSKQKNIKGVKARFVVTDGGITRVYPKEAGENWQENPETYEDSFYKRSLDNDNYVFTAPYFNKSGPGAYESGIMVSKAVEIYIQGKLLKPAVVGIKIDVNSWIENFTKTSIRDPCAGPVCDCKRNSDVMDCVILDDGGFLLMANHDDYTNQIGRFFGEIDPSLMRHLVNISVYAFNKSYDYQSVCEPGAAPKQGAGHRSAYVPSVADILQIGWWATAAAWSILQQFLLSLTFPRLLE
Chain of human Cav2.2 (P54289 957-1103 partner limits assumed): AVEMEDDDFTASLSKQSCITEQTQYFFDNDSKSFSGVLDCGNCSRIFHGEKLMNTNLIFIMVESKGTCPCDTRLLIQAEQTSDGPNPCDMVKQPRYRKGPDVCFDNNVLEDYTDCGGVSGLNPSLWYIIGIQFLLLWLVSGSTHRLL
Chain of human Cav2.2 (P54284 whole entry partner): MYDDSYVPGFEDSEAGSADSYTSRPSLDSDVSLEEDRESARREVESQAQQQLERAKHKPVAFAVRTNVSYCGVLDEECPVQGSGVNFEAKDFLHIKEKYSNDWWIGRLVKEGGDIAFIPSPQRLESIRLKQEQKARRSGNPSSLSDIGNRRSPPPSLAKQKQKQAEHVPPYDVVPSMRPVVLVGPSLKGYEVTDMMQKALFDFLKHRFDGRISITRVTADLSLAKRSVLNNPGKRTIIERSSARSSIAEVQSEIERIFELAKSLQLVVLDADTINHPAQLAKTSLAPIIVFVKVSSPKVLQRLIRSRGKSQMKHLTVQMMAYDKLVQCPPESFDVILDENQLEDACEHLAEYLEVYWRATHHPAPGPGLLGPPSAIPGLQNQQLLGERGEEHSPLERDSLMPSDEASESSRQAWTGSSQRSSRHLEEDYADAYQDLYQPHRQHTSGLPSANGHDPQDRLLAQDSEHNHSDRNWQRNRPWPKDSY
Settings: not given
The essentials: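 IC50 values derive from nonlinear sigmoidal fitting of percent inhibition, relative to inhibitor-free activity, of Ca2+ influx read by FLIPR. Cells were IMR32 human neuroblastoma, plated at 1−1.2×10^5 per well and grown 48 h at 37 °C.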
As to `CN[C@@H](CC(C)C)C(=O)N[C@H]1CC[C@@H]2CN(c3ccc(F)c(C(F)F)c3)C[C@@H]21` [Example 769, N-{(3aR,4S,6aS)-2-[3-(difluoromethyl)-4-fluorophenyl]octahydrocyclopenta[c]pyrrol-4-yl}-N^2-methyl-L-leucinamide], the IC50 (as a rule, the concentration at which inhibition is half-maximal) was determined as 1.13 µM.

On to `CN[C@@H](CC(C)C)C(=O)N[C@H]1CC[C@@H]2CN(c3ccccc3C(F)(F)F)C[C@@H]21` [Example 618, N^2-methyl-N-{(3aR,4S,6aS)-2-[2-(trifluoromethyl)phenyl]octahydrocyclopenta[c]pyrrol-4-yl}-L-leucinamide], for which the IC50 was found to be 0.63 µM.

Regarding `CN[C@H](C(=O)N[C@H]1CC[C@@H]2CN(c3ccc(C(F)(F)F)cc3)C[C@@H]21)C(C)C` [Example 747, N^2-methyl-N-{(3aR,4S,6aS)-2-[4-(trifluoromethyl)phenyl]octahydrocyclopenta[c]pyrrol-4-yl}-L-valinamide], the IC50 is above 9.5 µM.

In the case of `CNC(C)(C)C(=O)N[C@H]1CC[C@@H]2CN(c3ccc(C(F)(F)F)cc3)C[C@@H]21` [Example 754, N^2,2-dimethyl-N-{(3aR,4S,6aS)-2-[4-(trifluoromethyl)phenyl]octahydrocyclopenta[c]pyrrol-4-yl}alaninamide], the IC50 amounted to 6.78 µM.

The assay is the same for the next values; noted with them: read-out: IC50 (μM) or percent inhibition (* indicates 3 minute incubation, otherwise 60 minute); IC50; 60 minute pre-incubation with compound; IMR32 cells, 80 mM KCl depolarization.
With `CCC[C@H](N)C(=O)N[C@H]1CC[C@@H]2CN(Cc3ccc(C(F)(F)F)cc3)C[C@@H]21` [Example 382, N^1-{(3aR,4S,6aS)-2-[4-(trifluoromethyl)benzyl]octahydrocyclopenta[c]pyrrol-4-yl}-L-norvalinamide], the IC50 is 14.4 µM.

As to `CC(C)C[C@H](C(=O)N1C[C@@H]2CC[C@@H](NC(=O)C(C3CCCCC3)C3CCCCC3)[C@@H]2C1)N(C)C` [Example 217, 2,2-dicyclohexyl-N-[(3aS,4R,6aR)-2-(N,N-dimethyl-D-leucyl)octahydrocyclopenta[c]pyrrol-4-yl]acetamide], the IC50 is 1.28 µM.

As to `CC(C)C[C@@H](C(=O)N[C@@H]1CC[C@H]2CN(Cc3cccc(C(F)(F)F)c3)C[C@H]21)N(C)C(=O)OC(C)(C)C` [Example 155, N^2-(tert-butyloxycarbonyl)-N^2-methyl-N^1-{(3aS,4R,6aR)-2-[3-(trifluoromethyl)benzyl]octahydrocyclopenta[c]pyrrol-4-yl}-L-leucinamide], the IC50 was 0.69 µM.

For `CCC[C@H](NC)C(=O)N[C@H]1CC[C@@H]2CN(S(=O)(=O)c3cccs3)C[C@@H]21` [Example 533, N^2-methyl-N^1-[(3aR,4S,6aS)-2-(thien-2-ylsulfonyl)octahydrocyclopenta[c]pyrrol-4-yl]-L-norvalinamide], the IC50 was determined as 9.68 µM.

As to `CC(C)C[C@H](N)C(=O)N[C@H]1CC[C@H]2CN(Cc3cccc(C(F)(F)F)c3)C[C@H]21` (stereo in doubt) [Example 158, N^1-{(3aS*,4S*,6aR*)-2-[3-(trifluoromethyl)benzyl]octahydrocyclopenta[c]pyrrol-4-yl}-L-leucinamide], the IC50 came to 3.51 µM.

Take `O=C(CCC(c1ccc(F)cc1)c1ccc(F)cc1)N[C@@H]1CC[C@H]2CN(Cc3cccc(C(F)(F)F)c3)C[C@H]21` (relative stereo) [Example 144, 4,4-bis(4-fluorophenyl)-N-{(3aS*,4R*,6aR*)-2-[3-(trifluoromethyl)benzyl]octahydrocyclopenta[c]pyrrol-4-yl}butanamide]: the IC50 was found to be 1.04 µM.

As for `CC(C)C[C@H](C(=O)N[C@@H]1CC[C@H]2CN(Cc3cccc(C(F)(F)F)c3)C[C@H]21)N(C)C(=O)OC(C)(C)C` (relative stereo) [Example 150, N^2-(tert-butyloxycarbonyl)-N^2-methyl-N^1-{(3aS*,4R*,6aR*)-2-[3-(trifluoromethyl)benzyl]octahydrocyclopenta[c]pyrrol-4-yl}-D-leucinamide], the IC50 amounted to 0.51 µM.

Take `CC(C)C(C(=O)N[C@H]1CC[C@@H]2CN(Cc3cccc(Cl)c3)C[C@@H]21)c1ccccc1` (stereo partly drawn) [Example 86, N-[(3aR,4S,6aS)-2-(3-chlorobenzyl)octahydrocyclopenta[c]pyrrol-4-yl]-3-methyl-2-phenylbutanamide]: the IC50 came to 1.63 µM.
